In BindingDB's records for doi:10.1016/j.bmc.2010.08.049 (University of Wisconsin-Milwaukee, 2010):

How the values were obtained:
[1] = biological target: GABA A receptor alpha-4/beta-3/gamma-2 (Homo sapiens, UniProt P48169+P18507+P28472); assay: Displacement of [3H]flunitrazepam from human recombinant GABAA alpha-4-beta-3-gamma-2 receptor expressed in HEK cells by liquid scintillation counting
[2] = biological target: T1, GABA-A receptor; alpha-5/beta-3/gamma-2 (Homo sapiens, UniProt P31644+P18507+P28472); assay: Displacement of [3H]flunitrazepam from human recombinant GABAA alpha-5-beta-3-gamma-2 receptor expressed in HEK cells by liquid scintillation counting
T1 sequence (P31644 whole entry): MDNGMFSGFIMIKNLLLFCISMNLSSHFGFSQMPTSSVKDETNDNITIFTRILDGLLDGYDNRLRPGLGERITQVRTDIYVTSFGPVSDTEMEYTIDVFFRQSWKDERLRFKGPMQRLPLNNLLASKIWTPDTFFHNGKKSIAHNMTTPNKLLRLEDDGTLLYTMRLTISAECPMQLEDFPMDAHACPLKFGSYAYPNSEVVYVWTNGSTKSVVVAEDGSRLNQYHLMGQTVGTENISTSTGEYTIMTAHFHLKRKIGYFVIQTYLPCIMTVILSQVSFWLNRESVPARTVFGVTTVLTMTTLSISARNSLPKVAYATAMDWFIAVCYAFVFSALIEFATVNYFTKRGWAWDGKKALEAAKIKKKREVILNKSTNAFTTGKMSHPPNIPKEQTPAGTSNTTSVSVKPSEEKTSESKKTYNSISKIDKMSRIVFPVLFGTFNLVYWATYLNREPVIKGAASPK
T1 sequence (P18507 whole entry): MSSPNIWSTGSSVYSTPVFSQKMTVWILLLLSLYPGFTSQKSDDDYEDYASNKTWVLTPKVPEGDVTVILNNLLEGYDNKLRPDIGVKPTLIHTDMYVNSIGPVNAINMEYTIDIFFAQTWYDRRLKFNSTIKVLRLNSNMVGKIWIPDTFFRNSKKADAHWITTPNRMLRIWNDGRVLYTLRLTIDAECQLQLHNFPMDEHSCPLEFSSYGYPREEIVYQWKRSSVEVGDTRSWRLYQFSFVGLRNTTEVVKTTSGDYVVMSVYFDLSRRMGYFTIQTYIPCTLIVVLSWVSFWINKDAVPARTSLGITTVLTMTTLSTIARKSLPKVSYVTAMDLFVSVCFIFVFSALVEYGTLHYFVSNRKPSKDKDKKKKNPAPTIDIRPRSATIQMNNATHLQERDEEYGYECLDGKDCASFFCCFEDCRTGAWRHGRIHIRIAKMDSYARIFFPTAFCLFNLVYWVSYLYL
T1 sequence (P28472 whole entry): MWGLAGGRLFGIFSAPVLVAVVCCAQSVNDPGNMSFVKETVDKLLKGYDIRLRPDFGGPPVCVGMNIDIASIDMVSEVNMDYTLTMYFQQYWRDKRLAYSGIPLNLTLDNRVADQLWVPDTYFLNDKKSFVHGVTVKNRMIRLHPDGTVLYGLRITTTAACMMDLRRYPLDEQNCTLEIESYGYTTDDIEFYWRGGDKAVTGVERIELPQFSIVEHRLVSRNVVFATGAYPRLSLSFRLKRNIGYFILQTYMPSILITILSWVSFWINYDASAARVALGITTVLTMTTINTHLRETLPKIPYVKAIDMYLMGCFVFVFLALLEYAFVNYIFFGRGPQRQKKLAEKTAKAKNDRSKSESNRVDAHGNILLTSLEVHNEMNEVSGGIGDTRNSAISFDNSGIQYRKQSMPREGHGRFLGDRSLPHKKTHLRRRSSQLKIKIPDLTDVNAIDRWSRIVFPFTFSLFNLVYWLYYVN

[3] = biological target: Gamma-aminobutyric acid receptor subunit alpha-6/beta-3/gamma-2 (Homo sapiens, UniProt Q16445+P18507+P28472); assay: Displacement of [3H]flunitrazepam from human recombinant GABAA alpha-6-beta-3-gamma-2 receptor expressed in HEK cells by liquid scintillation counting
Gamma-aminobutyric acid receptor subunit alpha-6/beta-3/gamma-2, sequence (Q16445 whole entry, one chain of several): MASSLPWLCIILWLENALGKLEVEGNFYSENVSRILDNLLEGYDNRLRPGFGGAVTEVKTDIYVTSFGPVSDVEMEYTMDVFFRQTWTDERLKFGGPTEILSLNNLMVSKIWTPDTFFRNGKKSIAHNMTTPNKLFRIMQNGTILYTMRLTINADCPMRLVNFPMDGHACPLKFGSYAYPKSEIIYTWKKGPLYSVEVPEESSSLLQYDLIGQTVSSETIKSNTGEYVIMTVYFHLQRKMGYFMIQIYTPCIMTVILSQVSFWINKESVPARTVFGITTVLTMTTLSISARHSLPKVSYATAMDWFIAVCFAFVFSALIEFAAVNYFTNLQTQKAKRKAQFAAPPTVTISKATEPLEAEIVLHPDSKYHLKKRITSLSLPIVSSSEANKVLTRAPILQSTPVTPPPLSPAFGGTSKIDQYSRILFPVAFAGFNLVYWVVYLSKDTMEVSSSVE

[4] = biological target: T2, Gamma-aminobutyric acid receptor subunit alpha-1/beta-3/gamma-2 (Homo sapiens, UniProt P14867+P18507+P28472); assay: Displacement of [3H]flunitrazepam from human recombinant GABAA alpha-1-beta-3-gamma-2 receptor expressed in HEK cells by liquid scintillation counting
T2 sequence (P14867 whole entry): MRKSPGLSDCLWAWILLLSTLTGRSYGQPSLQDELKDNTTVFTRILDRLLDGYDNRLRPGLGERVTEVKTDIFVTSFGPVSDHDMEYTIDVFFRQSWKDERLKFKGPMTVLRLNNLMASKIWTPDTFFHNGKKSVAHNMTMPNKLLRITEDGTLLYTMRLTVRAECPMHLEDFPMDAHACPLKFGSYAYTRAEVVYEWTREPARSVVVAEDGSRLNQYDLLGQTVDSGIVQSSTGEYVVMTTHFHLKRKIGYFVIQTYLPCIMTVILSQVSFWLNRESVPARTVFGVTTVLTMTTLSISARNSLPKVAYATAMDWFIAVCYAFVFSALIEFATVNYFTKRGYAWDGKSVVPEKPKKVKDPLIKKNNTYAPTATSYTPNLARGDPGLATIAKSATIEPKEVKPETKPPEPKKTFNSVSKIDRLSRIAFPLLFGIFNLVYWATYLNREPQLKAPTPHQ
T2 sequence (P18507 whole entry): T1 sequence (P18507 whole entry)
T2 sequence (P28472 whole entry): T1 sequence (P28472 whole entry)

[5] = biological target: T3, GABA-A receptor; alpha-2/beta-3/gamma-2 (Homo sapiens, UniProt P47869+P18507+P28472); assay: Displacement of [3H]flunitrazepam from human recombinant GABAA alpha-2-beta-3-gamma-2 receptor expressed in HEK cells by liquid scintillation counting
T3 sequence (P47869 whole entry): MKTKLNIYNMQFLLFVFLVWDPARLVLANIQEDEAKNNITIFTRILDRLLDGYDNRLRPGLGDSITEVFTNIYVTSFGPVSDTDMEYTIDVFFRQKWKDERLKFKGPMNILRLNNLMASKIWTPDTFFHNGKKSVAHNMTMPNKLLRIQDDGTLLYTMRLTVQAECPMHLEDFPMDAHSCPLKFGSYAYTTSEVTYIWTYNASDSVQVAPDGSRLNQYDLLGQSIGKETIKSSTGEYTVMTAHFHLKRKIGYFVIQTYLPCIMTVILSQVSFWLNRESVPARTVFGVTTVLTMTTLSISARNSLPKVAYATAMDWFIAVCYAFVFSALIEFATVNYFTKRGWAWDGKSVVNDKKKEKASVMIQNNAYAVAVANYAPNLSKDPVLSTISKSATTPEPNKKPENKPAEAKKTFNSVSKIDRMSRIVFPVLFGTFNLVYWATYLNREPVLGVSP
T3 sequence (P18507 whole entry): T1 sequence (P18507 whole entry)
T3 sequence (P28472 whole entry): T1 sequence (P28472 whole entry)

[6] = biological target: T4, Gamma-aminobutyric acid receptor subunit alpha-3/beta-3/gamma-2 (Homo sapiens, UniProt P34903+P18507+P28472); assay: Displacement of [3H]flunitrazepam from human recombinant GABAA alpha-3-beta-3-gamma-2 receptor expressed in HEK cells by liquid scintillation counting
T4 sequence (P34903 whole entry): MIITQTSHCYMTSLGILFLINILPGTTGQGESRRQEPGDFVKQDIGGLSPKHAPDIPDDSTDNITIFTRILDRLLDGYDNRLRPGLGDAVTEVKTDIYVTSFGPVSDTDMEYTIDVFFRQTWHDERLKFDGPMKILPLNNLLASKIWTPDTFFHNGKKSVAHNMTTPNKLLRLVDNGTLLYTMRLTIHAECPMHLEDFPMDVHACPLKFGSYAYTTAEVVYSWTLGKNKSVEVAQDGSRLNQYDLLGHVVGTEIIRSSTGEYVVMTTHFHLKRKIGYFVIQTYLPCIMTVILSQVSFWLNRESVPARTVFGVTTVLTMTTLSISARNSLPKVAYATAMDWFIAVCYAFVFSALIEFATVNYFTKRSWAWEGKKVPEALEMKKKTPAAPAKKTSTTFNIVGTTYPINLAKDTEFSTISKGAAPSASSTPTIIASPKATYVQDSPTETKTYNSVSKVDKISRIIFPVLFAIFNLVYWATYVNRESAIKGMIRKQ
T4 sequence (P18507 whole entry): T1 sequence (P18507 whole entry)
T4 sequence (P28472 whole entry): T1 sequence (P28472 whole entry)

GABA A receptor alpha-4/beta-3/gamma-2, sequence (P48169 whole entry, one chain of several): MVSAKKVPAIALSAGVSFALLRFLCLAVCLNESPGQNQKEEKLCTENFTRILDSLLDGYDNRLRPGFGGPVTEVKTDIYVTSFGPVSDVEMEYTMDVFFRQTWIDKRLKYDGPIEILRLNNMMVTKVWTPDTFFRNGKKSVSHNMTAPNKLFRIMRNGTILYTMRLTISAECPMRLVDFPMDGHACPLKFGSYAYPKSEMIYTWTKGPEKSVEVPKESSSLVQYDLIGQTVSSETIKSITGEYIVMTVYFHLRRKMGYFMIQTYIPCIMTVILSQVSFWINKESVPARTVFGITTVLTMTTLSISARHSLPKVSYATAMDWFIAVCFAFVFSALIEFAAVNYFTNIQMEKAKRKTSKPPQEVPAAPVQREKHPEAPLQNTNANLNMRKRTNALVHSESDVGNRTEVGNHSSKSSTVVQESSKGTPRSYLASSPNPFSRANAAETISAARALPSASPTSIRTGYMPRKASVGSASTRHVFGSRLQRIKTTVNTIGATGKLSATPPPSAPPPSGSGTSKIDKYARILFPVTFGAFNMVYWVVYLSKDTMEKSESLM

`CC(OC(=O)c1cc2c(cn1)[nH]c1ccccc12)C(Cl)(Cl)Cl` (stereo not given) [1,1,1-trichloropropan-2-yl 9H-pyrido[3,4-b]indole-3-carboxylate] gave a Ki [1] of 3000 nM, a Ki [2] of 2000 nM and a Ki [3] of 5000 nM. For the same compound, the Ki [4] was 2000 nM, the Ki [5] was 2000 nM and the Ki [6] was 2000 nM.
With `CCC(OC(=O)c1cc2c(cn1)[nH]c1ccccc12)C(F)(F)F` (stereo not given) [1,1,1-trifluorobutan-2-yl 9H-pyrido[3,4-b]indole-3-carboxylate] the Ki [2] was 1000 nM, the Ki [4] was 1000 nM and the Ki [5] was 1000 nM. For the same compound, the Ki [6] was 1000 nM.
